We go through one compound from patent publication US20050175550A1, “Compositions for oral use” (priority 2000, published 2005).

Holding throughout (assay): MIC by agar plate dilution method on standard strains (Example 3)
Holding throughout (assay type): cell-based
Holding throughout (settings): read-out: MIC

Assay [1] has as its system Moraxella (Branhamella) catarrhalis ATCC25240. The protocol: (§1) Drug solutions at a concentration 10 times as high as the maximum applicable concentration were prepared as original solutions of test drugs given in Table 2 (as to solvents used for this purpose, reference should be made also to Table 2). Serial two-fold dilution series of the original solutions were prepared at desired stages, and 1 ml each of the diluted drug solutions was added to 9 ml of media given in Table 3 to prepare drug plates. […] • 1) Bacterial solutions stocked at −80° C. were inoculated on agar media (as to media used, reference should be made to Table 3), and then incubated at 37° C. overnight. When desired, subculturing was conducted once more on the same agar media (by overnight incubation at 37° C.). • 2) Colonies growing on the agar media were sampled by a platinum loop, suspended in liquid media (reference should be made to Table 3) and statically incubated at 37° C. for 18 hours (preculturing). • 3) Preculturing was continued up to McFarland 0.5 (McFarland 0.5=about 10^8 CFU/ml), and then the culture broths were diluted with Muellar Hinton Broth to make 10^6 CFU/ml. 5 μl each of the diluted solutions were inoculated on the above-mentioned drug plates by an inoculator Microplanter. […] Thus, bacterial solutions at about 10^8 CFU/ml can be easily prepared by use of McFarland 0.5. Bacterial solutions at such a turbidity are commercially available, but can be easily prepared.

Assay [2] has as its system Moraxella (Branhamella) catarrhalis ATCC43617. The method, then: as §1
For assay [3], the system named is Pseudomonas aeruginosa ATCC27853. The protocol: as §1
Assay [4] deals with Serratia marcescens ATCC13880. The method, then: as §1
Assay [5] deals with Staphylococcus aureus ATCC29247. The protocol: as §1
Assay [6] concerns Staphylococcus aureus ATCC6538P. The method, then:
as §1

Assay [7] relates to Streptococcus agalactiae ATCC13813. The protocol:
as §1

Assay [8] deals with Streptococcus pneumoniae ATCC49619. The method, then:
as §1

The test system of assay [9] is Streptococcus pneumoniae ATCC6301. The method, then: as §1
Assay [10] relates to Streptococcus pneumoniae ATCC6302. The method, then: as §1
Assay [11] relates to Streptococcus pneumoniae ATCC6303. The protocol: as §1
Assay [12] concerns Streptococcus pneumoniae ATCC6306. The method, then: as §1
Assay [13] concerns Streptococcus pyogenes ATCC12344. The method, then: as §1
For assay [14], the system named is Streptococcus pyogenes ATCC12353. The protocol: as §1
Assay [15] relates to Streptococcus pyogenes ATCC12385. The method, then:
as §1

≈ marks a conversion by molar mass, not a printed value.

Broadly, the MIC is the lowest concentration that inhibits growth of the organism. `CN(C)[C@@H]1C(O)=C(C(N)=O)C(=O)[C@@]2(O)C(O)=C3C(=O)c4c(O)cccc4[C@@](C)(O)[C@H]3C[C@@H]12` [TC, Tetracycline]: the MIC in assay [1] turned out to be 0.2 µg/mL (≈ 0.45 µM); in [2] it was 0.2 µg/mL (≈ 0.45 µM); in [3] it was 12.5 µg/mL (≈ 28.1 µM); in assay [4], 100 µg/mL (≈ 225 µM); in assay [5], 0.78 µg/mL (≈ 1.76 µM); in assay [6] it was 0.2 µg/mL (≈ 0.45 µM). Besides, the MIC worked out at 0.2 µg/mL (≈ 0.45 µM) in assay [7]; 0.1 µg/mL (≈ 0.225 µM) in assay [8]; 0.1 µg/mL (≈ 0.225 µM) in [9]; 0.2 µg/mL (≈ 0.45 µM) in [10]; 0.1 µg/mL (≈ 0.225 µM) in assay [11]; 0.2 µg/mL (≈ 0.45 µM) in assay [12]. The MIC in assay [13], in assay [14] and in [15] was 0.2 µg/mL (≈ 0.45 µM) each time.
